In US20250382308A1, “COMPOUNDS ACTIVE TOWARDS BROMODOMAINS” (NUEVOLUTION A/S, priority 2022, published 2025):
Values belong to the molecule of their own block, whether it stands above or below them.

Assays:
[1] = molecular target: first bromodomain of BRD4 (Homo sapiens (Human), UniProt O60885); test: Bromoscan binding assay BRD4 (1); conditions: for Kd: Bromoscan, geometric mean where multiple measurements have been made; for Selectivity BRD4(2)/BRD4(1): ratio BRD4(2) Kd / BRD4(1) Kd
Experimental: (§1) Compounds were assayed for binding affinity using bromoscan assays and a phosphodiesterase three assay.
(§2) Bromoscan assays were run by DiscoveRx Corporation. The relevant assay names are BRD4 (1) for the first bromodomain of BRD4 and BRD4 (2) for the second bromodomain of BRD4. Further Bromoscan assays covering other bromodomains may be employed to establish the selectivity profile of a compound of interest. To run the Bromoscan assay, a T7 phage strain displaying the relevant bromodomain was grown in parallel in 24-well blocks in an E. coli host derived from the BL21 strain. E. coli were grown to log-phase and infected with T7 phage from a frozen stock (multiplicity of infection=0.4) and incubated with shaking at 32° C. until lysis (90-150 minutes). The lysates were centrifuged (5,000×g) and filtered (0.2 μm) to remove cell debris. […] The liganded beads were blocked with excess biotin and washed with blocking buffer (SeaBlock (Pierce), 1% BSA (bovine serum albumin), 0.05% Tween 20, 1 mM DTT (dithiothreitol)) to remove unbound ligand and to reduce non-specific phage binding. […] Test compounds were prepared as 1000× stocks in 100% DMSO and subsequently diluted 1:10 in monoethylene glycol (MEG) to create stocks at 100× the screening concentration (resulting stock solution is 10% DMSO/90% MEG). The compounds were then diluted directly into the assays such that the final concentration of DMSO and MEG were 0.1% and 0.9%, respectively. All reactions were performed in polystyrene 96-well plates in a final volume of 0.135 ml. […] The bromodomain concentration in the eluates was measured by qPCR (quantitative real-time polymerase chain reaction). Binding constants (Kds) were calculated with a standard dose-response curve using the Hill equation: Response=Blackground+((Signal-Background)/(1+Kd^Hill Slope/Dose^Hill Slope)). The Hill Slope was set to −1. Curves were fitted using a non-linear least square fit with the Levenberg-Marquardt algorithm.

[2] = molecular target: second bromodomain of BRD4 (Homo sapiens (Human), UniProt O60885); test: Bromoscan binding assay BRD4 (2); conditions: geometric mean where multiple measurements have been made
Experimental: as §1, §2

[3] = molecular target: human recombinant phosphodiesterase (PDE3A) (Homo sapiens (Human), UniProt Q14432); test: Radiometric PDE3A assay; type: biochemical; conditions: [3H]-cAMP hydrolysis, 20 minutes at 30° C.
human recombinant phosphodiesterase (PDE3A), sequence (Q14432 whole entry): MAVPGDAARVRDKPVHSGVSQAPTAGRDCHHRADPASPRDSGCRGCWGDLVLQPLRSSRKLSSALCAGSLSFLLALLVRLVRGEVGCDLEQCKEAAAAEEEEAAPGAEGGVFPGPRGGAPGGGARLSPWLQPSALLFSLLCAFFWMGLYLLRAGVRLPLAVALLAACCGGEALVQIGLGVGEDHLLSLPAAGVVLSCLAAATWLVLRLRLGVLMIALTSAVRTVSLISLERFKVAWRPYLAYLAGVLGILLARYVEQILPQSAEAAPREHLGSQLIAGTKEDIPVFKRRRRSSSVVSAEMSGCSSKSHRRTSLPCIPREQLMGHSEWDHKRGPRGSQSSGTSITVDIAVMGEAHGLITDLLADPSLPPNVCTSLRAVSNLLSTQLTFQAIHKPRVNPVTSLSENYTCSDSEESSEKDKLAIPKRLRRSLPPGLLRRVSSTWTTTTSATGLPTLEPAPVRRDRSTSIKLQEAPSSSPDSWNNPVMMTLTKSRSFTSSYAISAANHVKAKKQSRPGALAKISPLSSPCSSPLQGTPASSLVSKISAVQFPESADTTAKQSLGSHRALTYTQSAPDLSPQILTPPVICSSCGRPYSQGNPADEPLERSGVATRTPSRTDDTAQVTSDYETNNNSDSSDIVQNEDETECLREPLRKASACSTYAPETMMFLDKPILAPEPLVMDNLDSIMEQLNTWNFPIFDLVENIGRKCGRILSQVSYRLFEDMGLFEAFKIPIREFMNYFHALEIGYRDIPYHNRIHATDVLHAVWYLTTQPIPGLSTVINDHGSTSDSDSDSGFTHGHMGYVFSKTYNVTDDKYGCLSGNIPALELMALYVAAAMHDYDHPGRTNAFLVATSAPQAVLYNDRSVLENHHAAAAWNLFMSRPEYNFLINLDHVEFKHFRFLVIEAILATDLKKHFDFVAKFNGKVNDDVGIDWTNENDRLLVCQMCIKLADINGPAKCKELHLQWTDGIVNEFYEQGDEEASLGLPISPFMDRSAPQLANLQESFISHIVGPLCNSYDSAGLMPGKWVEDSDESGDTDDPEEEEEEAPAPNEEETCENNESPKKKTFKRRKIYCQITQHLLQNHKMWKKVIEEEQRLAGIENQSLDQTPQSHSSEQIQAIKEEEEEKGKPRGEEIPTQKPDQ
Experimental: Partially purified human recombinant phosphodiesterase (PDE3A) was obtained by cloning cDNA and expressing in S. frugiperda insect cells using a baculovirus expression system. Cells were harvested from culture by centrifuging at 400×g for 5 minutes. Cell pellet was resuspended in 20 ml of RIPA Buffer (150 mM NaCl, 10 mM Tris, 0.1% NP-40, pH8.3), 4 ml/200 ml of culture, plus protease inhibitors (100 μl/10 ml) and incubated on ice for 10-20 minutes then spun at 3500×g for 10 minutes at 4° C. Supernatant was kept and the pellet thrown away. Tritium-labeled cyclic AMP was hydrolysed to 5′-AMP by PDE3A. The 5′-AMP was then further hydrolysed to adenosine by nucleotidase in snake venom. An anion-exchange resin binds all charged nucleotides and leaves [3H]adenosine as the only labeled compound to be counted by liquid scintillation. The radiometric assay method is a modification of the two-step method of Thompson and Appleman [Biochemistry 10; 311-316; 1971], adapted for a 96 well plate format. 50 μl of diluted PDE3A was incubated with 50 μl of [3H]-CAMP (specific activity 25 Ci/mmol) and 11 μl of 50% DMSO (or compound dilution) for 20 minutes at 30° C. The enzyme was diluted in 20 mM Tris HCl pH7.4 (×2.2 final concentration) and [3H]-cAMP were diluted in 10 mM MgCl2, 40 mM Tris HCl pH 7.4 (×2.2 final concentration). Reactions were carried out in Greiner 96 deep well 1 ml master-block. The plates were centrifuged for 9 seconds before the 20 minutes incubation. The reaction was terminated by denaturing the PDE enzyme (at 70° C. for 2 minutes, plates were left to cool on ice for 10 minutes) after which 25 μl snake venom nucleotidase (225 ug/ml final concentration) was added and incubated for 10 minutes (at 30° C.), plates were centrifuged for 9 seconds before incubation. After incubation 200 μl Dowex resin (1×8, 200-400 mesh) was added and the plate was shaken for 20 minutes then centrifuged for 3 minutes at 1000×g. 50 μl of supernatant was removed and added to 200 μl of MicroScint-20 in white plates (Greiner 96-well Optiplate) and shaken for 30 minutes before reading on Perkin Elmer TopCount Scintillation Counter. GraphPad Prism™ was used to calculate the IC50 values using a sigmoidal dose response (variable slope). The analysis measures 4 parameters including the best fit values for the bottom and top fit of the curve, the hill slope value and the IC50 value.

Kd [1]: 0.018 µM | Selectivity BRD4(2)/BRD4(1) [1]: 22 | Kd [2]: 0.4 µM | IC50 [3]: > 10 µM
Structure (SMILES): COc1cc(NC(=O)c2cc3c(nc2N2C[C@H](F)[C@@H](F)C2)COC3)cc2c(C)cc(=O)[nH]c12 (racemic) [Example 43, N-(8-methoxy-4-methyl-2-oxo-1H-quinolin-6-yl)-2-[rac-(3S,4S)-3,4-difluoropyrrolidin-1-yl]-5,7-dihydrofuro[3,4-b]pyridine-3-carboxamide]

Structure (SMILES): COc1cc(NC(=O)c2cc3c(nc2N2CCOCC2)CNC3)cc2c(C)cc(=O)[nH]c12 [Example 1, N-(8-methoxy-4-methyl-2-oxo-1H-quinolin-6-yl)-2-morpholino-6,7-dihydro-5H-pyrrolo[3,4-b]pyridine-3-carboxamide]
Kd [1]: 0.008 µM | Selectivity BRD4(2)/BRD4(1) [1]: 75 | Kd [2]: 0.6 µM | IC50 [3]: > 10 µM

Structure (SMILES): COc1cc(NC(=O)c2cc3c(nc2C2=CCOCC2)COC3)cc2c(C)cc(=O)[nH]c12 [Example 2, 2-(3,6-dihydro-2H-pyran-4-yl)-N-(8-methoxy-4-methyl-2-oxo-1H-quinolin-6-yl)-5,7-dihydrofuro[3,4-b]pyridine-3-carboxamide]
Kd [1]: 0.064 µM | Selectivity BRD4(2)/BRD4(1) [1]: 41 | Kd [2]: 2.6 µM | IC50 [3]: > 10 µM

Structure (SMILES): COc1cc(NC(=O)c2cc3c(nc2N(C)C)COC3)cc2c(C)cc(=O)[nH]c12 [Example 6, 2-(dimethylamino)-N-(8-methoxy-4-methyl-2-oxo-1H-quinolin-6-yl)-5,7-dihydrofuro[3,4-b]pyridine-3-carboxamide]
Kd [1]: 0.12 µM | Selectivity BRD4(2)/BRD4(1) [1]: 11 | Kd [2]: 1.3 µM | IC50 [3]: > 10 µM

Structure (SMILES): Cc1cc(=O)[nH]c2c(C)cc(NC(=O)c3cc4c(nc3N3CCOCC3)COC4)cc12 [Example 7, N-(4,8-dimethyl-2-oxo-1H-quinolin-6-yl)-2-morpholino-5,7-dihydrofuro[3,4-b]pyridine-3-carboxamide]
Kd [1]: 0.04 µM | Selectivity BRD4(2)/BRD4(1) [1]: 178 | Kd [2]: 7.1 µM | IC50 [3]: > 10 µM

Structure (SMILES): Cc1cc2[nH]c(=O)cc(C)c2cc1NC(=O)c1cc2c(nc1N1CCOCC1)COC2 [Example 11, N-(4,7-dimethyl-2-oxo-1H-quinolin-6-yl)-2-morpholino-5,7-dihydrofuro[3,4-b]pyridine-3-carboxamide]
Kd [1]: 0.09 µM | Selectivity BRD4(2)/BRD4(1) [1]: >111 | Kd [2]: > 10 µM | IC50 [3]: 7 µM

Structure (SMILES): CCOc1cc(NC(=O)c2cc3c(nc2N2CCOCC2)COC3)cc2c(C)cc(=O)[nH]c12 [Example 12, N-(8-ethoxy-4-methyl-2-oxo-1H-quinolin-6-yl)-2-morpholino-5,7-dihydrofuro[3,4-b]pyridine-3-carboxamide]
Kd [1]: 0.087 µM | Selectivity BRD4(2)/BRD4(1) [1]: 93 | Kd [2]: 8.1 µM | IC50 [3]: > 10 µM

Structure (SMILES): Cc1c(NC(=O)c2cc3c(nc2N2CCOCC2)COC3)cc2c(C)cc(=O)[nH]c2c1C [Example 13, 2-morpholino-N-(4,7,8-trimethyl-2-oxo-1H-quinolin-6-yl)-5,7-dihydrofuro[3,4-b]pyridine-3-carboxamide]
Kd [1]: 0.28 µM | Selectivity BRD4(2)/BRD4(1) [1]: >35 | Kd [2]: > 10 µM | IC50 [3]: > 10 µM

Structure (SMILES): COc1cc(NC(=O)c2cc3c(nc2N2CCOCC2)COC3)cc2c(C)cc(=O)[nH]c12 [Example 15, N-(8-methoxy-4-methyl-2-oxo-1H-quinolin-6-yl)-2-morpholino-5,7-dihydrofuro[3,4-b]pyridine-3-carboxamide]
Kd [1]: 0.014 µM | Selectivity BRD4(2)/BRD4(1) [1]: 157 | Kd [2]: 2.2 µM | IC50 [3]: > 10 µM

Structure (SMILES): COc1cc(NC(=O)c2cc3c(nc2N2C4CCC2COC4)COC3)cc2c(C)cc(=O)[nH]c12 [Example 17, N-(8-methoxy-4-methyl-2-oxo-1H-quinolin-6-yl)-2-(3-oxa-8-azabicyclo[3.2.1]octan-8-yl)-5,7-dihydrofuro[3,4-b]pyridine-3-carboxamide]
Kd [1]: 0.025 µM | Selectivity BRD4(2)/BRD4(1) [1]: 44 | Kd [2]: 1.1 µM | IC50 [3]: > 10 µM

Structure (SMILES): COc1cc(NC(=O)c2cc3c(nc2N2C[C@H]4C[C@@H]2CO4)COC3)cc2c(C)cc(=O)[nH]c12 [Example 24, N-(8-methoxy-4-methyl-2-oxo-1H-quinolin-6-yl)-2-[(1R,4R)-2-oxa-5-azabicyclo[2.2.1]heptan-5-yl]-5,7-dihydrofuro[3,4-b]pyridine-3-carboxamide]
IC50 [3]: > 10 µM

Structure (SMILES): COc1cc(NC(=O)c2cc3c(nc2N(C)CC2CC2)COC3)cc2c(C)cc(=O)[nH]c12 [Example 26, 2-[cyclopropylmethyl(methyl)amino]-N-(8-methoxy-4-methyl-2-oxo-1H-quinolin-6-yl)-5,7-dihydrofuro[3,4-b]pyridine-3-carboxamide]
Kd [1]: 0.051 µM | Selectivity BRD4(2)/BRD4(1) [1]: 61 | Kd [2]: 3.1 µM | IC50 [3]: > 10 µM

Structure (SMILES): COc1cc(NC(=O)c2cc3c(nc2N2CCOCC2)CCC3)cc2c(C)cc(=O)[nH]c12 [Example 29, N-(8-methoxy-4-methyl-2-oxo-1H-quinolin-6-yl)-2-morpholino-6,7-dihydro-5H-cyclopenta[b]pyridine-3-carboxamide]
Kd [1]: 0.018 µM | Selectivity BRD4(2)/BRD4(1) [1]: 106 | Kd [2]: 1.9 µM | IC50 [3]: > 10 µM

Structure (SMILES): Cc1cc(=O)[nH]c2c(OCCO)cc(NC(=O)c3cc4c(nc3N3CCOCC3)COC4)cc12 [Example 36, N-[8-(2-hydroxyethoxy)-4-methyl-2-oxo-1H-quinolin-6-yl]-2-morpholino-5,7-dihydrofuro[3,4-b]pyridine-3-carboxamide]
Kd [1]: 0.027 µM | Selectivity BRD4(2)/BRD4(1) [1]: 15 | Kd [2]: 0.4 µM | IC50 [3]: > 10 µM

Structure (SMILES): Cc1cc(=O)[nH]c2c(OC3CNC3)cc(NC(=O)c3cc4c(nc3N3CCOCC3)COC4)cc12 [Example 37, N-[8-(azetidin-3-yloxy)-4-methyl-2-oxo-1H-quinolin-6-yl]-2-morpholino-5,7-dihydrofuro[3,4-b]pyridine-3-carboxamide]
Kd [1]: 0.035 µM | Selectivity BRD4(2)/BRD4(1) [1]: >286 | Kd [2]: > 10 µM | IC50 [3]: > 10 µM

Structure (SMILES): CNCCOc1cc(NC(=O)c2cc3c(nc2N2CCOCC2)COC3)cc2c(C)cc(=O)[nH]c12 [Example 38, N-[4-methyl-8-[2-(methylamino)ethoxy]-2-oxo-1H-quinolin-6-yl]-2-morpholino-5,7-dihydrofuro[3,4-b]pyridine-3-carboxamide]
Kd [1]: 0.02 µM | Selectivity BRD4(2)/BRD4(1) [1]: >250 | Kd [2]: > 5 µM | IC50 [3]: > 10 µM

Structure (SMILES): COc1cc(NC(=O)c2cc3c(nc2N2C4CCC2CC4)COC3)cc2c(C)cc(=O)[nH]c12 [Example 39, 2-(7-azabicyclo[2.2.1]heptan-7-yl)-N-(8-methoxy-4-methyl-2-oxo-1H-quinolin-6-yl)-5,7-dihydrofuro[3,4-b]pyridine-3-carboxamide]
Kd [1]: 0.007 µM | Selectivity BRD4(2)/BRD4(1) [1]: 43 | Kd [2]: 0.3 µM | IC50 [3]: > 10 µM

Kd [1]: 0.026 µM | Selectivity BRD4(2)/BRD4(1) [1]: 16 | Kd [2]: 0.4 µM
Structure (SMILES): COc1cc(NC(=O)c2cc3c(nc2N2C[C@@H](F)[C@@H](F)C2)COC3)cc2c(C)cc(=O)[nH]c12 [Example 42, N-(8-methoxy-4-methyl-2-oxo-1H-quinolin-6-yl)-2-[rac-(3R,4S)-3,4-difluoropyrrolidin-1-yl]-5,7-dihydrofuro[3,4-b]pyridine-3-carboxamide]
